Laboratory results from patent US8633231B2, “Substituted imidazolones, compositions containing such compounds and methods of use” (Merck Sharp & Dohme Corp., priority 2010, dated 2014).

Target: Recombinant human glucagon receptor-expressing CHO cells (Homo sapiens (Human), UniProt P47871)
Test: Inhibition of Glucagon-Stimulated Intracellular cAMP Assay
Assay type: cell-based
Conditions: stimulation with 300 pM glucagon; LANCE cAMP Kit
Protocol: Inhibition of Glucagon-Stimulated Intracellular cAMP Assay
Recombinant human glucagon receptor-expressing CHO cells were harvested using a non-enzymatic cell dissociation solution (GIBCO 2672), pelleted and resuspended in stimulation buffer (1×HBSS, 5 mM Hepes, 0.1% BSA, pH7.4 in the presence of proteinase inhibitor and phosphodiesterase inhibitors). The adenylate cyclase assay was constructed following the LANCE cAMP Kit (Perkin Elmer, AD0264) instructions. Briefly, cells were preincubated with anti-cAMP antibody and 12 points series diluted compound in stimulation buffer with a final concentration of 3% DMSO for 30 minutes prior to stimulation with 300 pM glucagon for 45 minutes. The reaction was stopped by incubating with the supplied detection buffer containing Europium chelate of the Eu-SA/Biotin-cAMP tracer for 20 hours. The assay was done as triplicates in a 384 well plate. Fluorescence at 665 nm was measured using PheraStar instruments. Basal activity (100% inhibition) was determined using the DMSO control and 0% inhibition was defined as cAMP stimulation produced by 300 pM glucagon. Standard cAMP concentrations were assayed concurrently for conversion of fluorescence signal to cAMP level. Data was analyzed using the software program Prism from GraphPad. IC50 values were calculated using non-linear regression analysis assuming single site competition.

Recombinant human glucagon receptor-expressing CHO cells, sequence (P47871 26-477): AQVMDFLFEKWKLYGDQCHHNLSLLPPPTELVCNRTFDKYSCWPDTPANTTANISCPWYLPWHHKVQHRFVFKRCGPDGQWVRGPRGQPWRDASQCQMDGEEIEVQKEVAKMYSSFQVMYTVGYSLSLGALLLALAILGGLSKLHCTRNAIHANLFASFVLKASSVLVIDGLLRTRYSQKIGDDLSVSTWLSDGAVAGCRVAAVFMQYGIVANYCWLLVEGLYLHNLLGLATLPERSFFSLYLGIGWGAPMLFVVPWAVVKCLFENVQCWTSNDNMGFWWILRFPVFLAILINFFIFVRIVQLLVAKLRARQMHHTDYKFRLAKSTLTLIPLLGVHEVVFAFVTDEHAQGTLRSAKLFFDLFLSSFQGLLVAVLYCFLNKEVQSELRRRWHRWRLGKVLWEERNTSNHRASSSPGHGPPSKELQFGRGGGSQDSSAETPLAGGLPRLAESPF

Question: CC(C)(C)CC[C@H](c1ccc(C(=O)NCCC(=O)O)cc1)N1C(=O)C(c2cc(Cl)cc(Cl)c2)=NC1(C)C [Example 1] was tested. Which IC50 did it give?
Answer: 0.8 µM

Question: CC(C)(C)CC[C@H](c1ccc(C(=O)NCc2nn[nH]n2)cc1)N1C(=O)C(c2cc(Cl)cc(Cl)c2)=NC1(C)C [Example 2] was tested. Which IC50 did it give?
Answer: 3.7 µM

Question: How did the IC50 turn out when CC(C)(C)CC[C@H](c1ccc(C(=O)Nc2nn[nH]n2)cc1)N1C(=O)C(c2cc(Cl)cc(Cl)c2)=NC1(C)C [Example 3] was run?
Answer: 6.2 µM

Question: For CC(C)CC1(C)N=C(c2cc(Cl)cc(Cl)c2)C(=O)N1[C@H](CCC(C)(C)C)c1ccc(C(=O)NCc2nn[nH]n2)cc1 (some centres unmarked) [Example 4], which IC50 is on record?
Answer: 1.1 µM

Question: CC(C)CC1(C)N=C(c2cc(Cl)cc(Cl)c2)C(=O)N1[C@H](CCC(C)(C)C)c1ccc(C(=O)Nc2nn[nH]n2)cc1 (some centres unmarked) [Example 5] was tested. Which IC50 did it give?
Answer: 5.1 µM

Question: For CC(C)CC1(C)N=C(c2cccc(F)c2)C(=O)N1[C@H](CCC(C)(C)C)c1ccc(C(=O)NCc2nn[nH]n2)cc1 (some centres unmarked) [Example 6], which IC50 is on record?
Answer: 3.4 µM

Question: How did the IC50 turn out when CC(C)CC1(C)N=C(c2cc(Cl)cc(Cl)c2)C(=O)N1[C@H](CCC(C)(C)C)c1ccc(C(=O)NCCC(=O)O)cc1 (some centres unmarked) [Example 7] was run?
Answer: 0.6 µM

Question: Which IC50 does the source give for CC(C)(C)CC[C@H](c1ccc(C(=O)NCCC(=O)O)cc1)N1C(=O)C(c2cccc(F)c2)=NC1(C)C [Example 8] here?
Answer: 4.9 µM

Question: With CC(C)(C)CC[C@H](c1ccc(C(=O)Nc2nn[nH]n2)cc1)N1C(=O)C(c2cccc(F)c2)=NC1(C)C [Example 9] as the compound, how does the IC50 read?
Answer: 5.9 µM

Question: Which IC50 does the source give for CC(C)(C)CC[C@H](c1ccc(C(=O)NCc2nn[nH]n2)cc1)N1C(=O)C(c2cccc(F)c2)=NC1(C)C [Example 10] here?
Answer: 8.4 µM

Question: Which IC50 does the source give for CC1(C2CCCCC2)N=C(c2cc(Cl)cc(Cl)c2)C(=O)N1CCc1ccc(C(=O)NCCC(=O)O)cc1 (centres unmarked) [Example 11] here?
Answer: 1.7 µM

Question: Which IC50 does the source give for CC1(C)N=C(c2cc(Cl)cc(Cl)c2)C(=O)N1CCc1ccc(C(=O)NCCC(=O)O)cc1 [Example 12] here?
Answer: 1.7 µM

Question: How did the IC50 turn out when CC(C)CC1(C)N=C(c2cc(Cl)cc(Cl)c2)C(=O)N1CCc1ccc(C(=O)NCCC(=O)O)cc1 (centres unmarked) [Example 13] was run?
Answer: 4.2 µM

Question: With CC1(C2CCCCC2)N=C(c2ccc(OC(F)(F)F)cc2)C(=O)N1CCc1ccc(C(=O)NCCC(=O)O)cc1 (centres unmarked) [Example 14] as the compound, how does the IC50 read?
Answer: 5.1 µM

Question: With CC1(C2CCCCC2)NC(c2cccc(C(F)(F)F)c2)C(=O)N1CCc1ccc(C(=O)NCCC(=O)O)cc1 (centres unmarked) [Example 15] as the compound, how does the IC50 read?
Answer: 3.5 µM

Question: CC1(C)N=C(c2ccc(OC(F)(F)F)cc2)C(=O)N1CCc1ccc(C(=O)NCCC(=O)O)cc1 [Example 16] was tested. Which IC50 did it give?
Answer: 8.3 µM

Question: For CC1(C)N=C(c2cc(Cl)cc(Cl)c2)C(=O)N1[C@@H](c1ccc(C(=O)NCCC(=O)O)cc1)C1CC1 [Example 17], which IC50 is on record?
Answer: 1.7 µM

Question: With CCCC[C@H](c1ccc(C(=O)NCCC(=O)O)cc1)N1C(=O)C(c2ccc(-c3cc(Cl)cc(Cl)c3)cc2)=NC1(C)C [Example 18] as the compound, how does the IC50 read?
Answer: 1 µM

Question: How did the IC50 turn out when CC(C)[C@H](c1ccc(C(=O)NCCC(=O)O)cc1)N1C(=O)C(c2cc(Cl)cc(Cl)c2)=NC1(C)C [Example 19] was run?
Answer: 1.3 µM

Question: For CCCC[C@H](c1ccc(C(=O)NCCC(=O)O)cc1)N1C(=O)C(c2cc(Cl)cc(Cl)c2)=NC1(C)C [Example 20], which IC50 is on record?
Answer: 2 µM
